Where a name gives a salt, the structure may show the parent alone.

The subject of one test is T1, 1N4R p-tau.
T1 construct: made in house; host or cells: E. coli (PIMAX system)
In words: p-tau aggregation modulator screen of 1280-compound library (ThS fluorescence net change over 16 h).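 Also: 30 µM compound with 6 µM p-tau over 16 h.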 The test is classed as biochemical.
Conditions: not given
For the compound `CC1(C)[C@H](C(=O)O)N2C(=O)C[C@H]2S1(=O)=O` [Sulbactam], the ThS net change was 463.
Same read-out and setting: next, `Cl.Oc1noc2c1CCNC2` [THIP Hydrochloride]: 448; `CCC(=O)O[C@H]1CC[C@H]2[C@@H]3CCC4=CC(=O)CC[C@]4(C)[C@H]3CC[C@]12C` [Testosterone propionate]: 452.

Still in this test, the particulars now being: 1280-compound library screen; ThS fluorescence net change over 16 h.
As to `[H]/N=C(/N)N[C@H]1[C@H](O)[C@@H](O)[C@H](O[C@@H]2O[C@@H](C)[C@](O)(C=O)[C@H]2O[C@@H]2O[C@@H](CO)[C@H](O)[C@@H](O)[C@@H]2NC)[C@@H](N/C(N)=N\[H])[C@@H]1O` [Streptomycin sulfate], the ThS net change came to 397.
On the same count and under the same terms, next, `O=C(O)CCC(=O)Nc1ccc(S(=O)(=O)Nc2nccs2)cc1` [Succinylsulfathiazole]: 382.
Still for that read-out and setting: to `Nc1ccc(S(=O)(=O)Nc2ncccn2)cc1` [Sulfadiazine] belongs 379; to `COc1cc(NS(=O)(=O)c2ccc(N)cc2)nc(OC)n1` [Sulfadimethoxine], 380.
Same read-out and setting: next, `COc1ccc(NS(=O)(=O)c2ccc(N)cc2)nn1` [Sulfamethoxypyridazine]: 392; `Nc1ccc(S(=O)(=O)Nc2ccccn2)cc1` [Sulfapyridine]: 394.
For `Nc1ccc(S(=O)(=O)Nc2nccs2)cc1` [Sulfathiazole], the ThS net change stood at 389.
In turn, `Cc1noc(NS(=O)(=O)c2ccc(N)cc2)c1C` [Sulfisoxazole] came in with a ThS net change of 404.
On the same count and under the same terms, next, `COc1cc([S+](C)[O-])ccc1-c1nc2ncccc2[nH]1` (stereo not drawn) [Sulmazole]: 406; `CNS(=O)(=O)Cc1ccc2[nH]cc(CCN(C)C)c2c1` [Sumatriptan succinate]: 393; `CC(C(=O)O)c1ccc(C(=O)c2cccs2)cc1` (stereo not drawn) [Suprofen]: 391.
The same measure, in the same setting: to `CCCCC1(COC(=O)CCC(=O)O)C(=O)N(c2ccccc2)N(c2ccccc2)C1=O` [Suxibuzone] belongs 392; to `Nc1c2c(nc3ccccc13)CCCC2` [Tacrine hydrochloride], 405.
In turn, `[H]/N=C(/NCCCCC)N/N=C/c1c[nH]c2ccc(OC)cc12` [Tegaserod maleate] registered a ThS net change of 379.
Still for that read-out and setting: to `Cn1nnc2c(C(N)=O)ncn2c1=O` [Temozolomide] belongs 380; to `CCCCNc1ccc(C(=O)OCCN(C)C)cc1.Cl` [Tetraca?ne hydrochloride], 401.

Still in this test, the particulars now being: 1280-compound library screen; […].
In turn, `CC(=O)[N-]S(=O)(=O)c1ccc(N)cc1.O.[Na+]` [Sulfacetamide sodic hydrate] gave a ThS net change of 393.
Still for that read-out and setting: next, `Nc1ccc(S(=O)(=O)[N-]c2cnc3ccccc3n2)cc1.[Na+]` [Sulfaquinoxaline sodium salt]: 398; `O.O=C1C(O)=C(O)C(=O)C(O)=C1O` [Tetrahydroxy-1,4-quinone hydrate]: 391.

The same test, now with this note: library screen, ThS fluorescence net change over 16 h with p-tau.
For the compound `O=C(O)c1cc(/N=N/c2ccc(S(=O)(=O)Nc3ccccn3)cc2)ccc1O` [Sulfasalazine], the ThS net change came to 282.
As to `CC1=C(CC(=O)O)c2cc(F)ccc2/C1=C\c1ccc([S+](C)[O-])cc1` (stereo not drawn) [Sulindac], the ThS net change was 288.
Still for that read-out and setting: next, `Cc1scc2c1N(C(=O)CN1CCN(C)CC1)c1ccccc1NC2=O` [Telenzepine dihydrochloride]: 326; `CC(C)N1CCN(c2ccc(OCC3COC(Cn4cncn4)(c4ccc(Cl)cc4Cl)O3)cc2)CC1` (stereo not drawn) [Terconazole]: 326; `CC(C)(C)c1ccc(C(O)CCCN2CCC(C(O)(c3ccccc3)c3ccccc3)CC2)cc1` (stereo not drawn) [Terfenadine]: 251.
The same measure, in the same setting: to `CN(C)[C@@H]1C(O)=C(C(N)=O)C(=O)[C@@]2(O)C(O)=C3C(=O)c4c(O)cccc4[C@@](C)(O)[C@H]3C[C@@H]12` [Tetracycline hydrochloride] belongs 202.

Still in this test, the particulars now being: p-tau aggregation modulator screen of 1280-compound library; ThS fluorescence net change.
Compound `Nc1ccc(S(=O)(=O)NC(=O)c2ccccc2)cc1` [Sulfabenzamide] showed a ThS net change of 347.
Still for that read-out and setting: next, `[H]/N=C(/N)NS(=O)(=O)c1ccc(N)cc1` [Sulfaguanidine]: 364.
On the same count and under the same terms, to `COc1cnc(NS(=O)(=O)c2ccc(N)cc2)nc1` [Sulfameter] belongs 357.
The same measure, in the same setting: to `Cc1nnc(NS(=O)(=O)c2ccc(N)cc2)s1` [Sulfamethizole] belongs 365; to `Cc1cc(NS(=O)(=O)c2ccc(N)cc2)no1` [Sulfamethoxazole], 376.
`Nc1ccc(S(N)(=O)=O)cc1` [Sulfanilamide] registered a ThS net change of 355.
The same measure, in the same setting: next, `Nc1ccc(S(=O)(=O)Nc2ccnn2-c2ccccc2)cc1` [Sulfaphenazole]: 334.
Still for that read-out and setting: next, `O=C1C(CC[S+]([O-])c2ccccc2)C(=O)N(c2ccccc2)N1c1ccccc1` (stereo not drawn) [Sulfinpyrazone]: 342; `CCCCCCCCNC(C)C(O)c1ccc(SC(C)C)cc1` (stereo not drawn) [Suloctidil]: 370.
The compound `CCN1CCCC1CNC(=O)c1cc(S(N)(=O)=O)ccc1OC` (stereo not drawn) [Sulpiride] returned a ThS net change of 373.
The same measure, in the same setting: to `COc1ccc2[nH]c([S+]([O-])Cc3ncc(C)c(OC)c3C)nc2n1` (stereo not drawn) [Tenatoprazole] belongs 371.
The same measure, in the same setting: next, `CC(C)(C)NCC(O)c1cc(O)cc(O)c1.CC(C)(C)NCC(O)c1cc(O)cc(O)c1.O=S(=O)(O)O` (stereo not drawn) [Terbutaline hemisulfate]: 339; `c1ccc2c(c1)CCCC2C1=NCCN1` (stereo not drawn) [Tetrahydrozoline hydrochloride]: 362.

Staying with this test, now noted: p-tau aggregation modulator screen of 1280-compound library; […].
The compound `Clc1ccc(CSC(Cn2ccnc2)c2ccc(Cl)cc2Cl)cc1` (stereo not drawn) [Sulconazole nitrate] showed a ThS net change of 336.
Still for that read-out and setting: next, `Cc1cc(C)nc([N-]S(=O)(=O)c2ccc(N)cc2)n1.[Na+]` [Sulfamethazine sodium salt]: 366.
Regarding `CC/C(=C(\c1ccccc1)c1ccc(OCCN(C)C)cc1)c1ccccc1` [Tamoxifen citrate], the ThS net change was 336.
The same measure, in the same setting: next, `COc1cc2nc(N3CCN(C(=O)C4CCCO4)CC3)nc(N)c2cc1OC` (stereo not drawn) [Terazosin hydrochloride]: 366.

Still in this test, the particulars now being: p-tau aggregation modulator screen of the compound library, ThS fluorescence net change.
Compound `Nc1ccc(S(=O)(=O)Nc2ccc(Cl)nn2)cc1` [Sulfachloropyridazine] returned a ThS net change of 413.
On the same count and under the same terms, to `COc1ncnc(NS(=O)(=O)c2ccc(N)cc2)c1OC` [Sulfadoxine] belongs 513; to `Cc1ccnc(NS(=O)(=O)c2ccc(N)cc2)n1` [Sulfamerazine], 421; to `COc1cc(NS(=O)(=O)c2ccc(N)cc2)ncn1` [Sulfamonomethoxine], 419.
Same read-out and setting: next, `C[C@]1(Cn2ccnn2)[C@H](C(=O)O)N2C(=O)C[C@H]2S1(=O)=O` [Tazobactam]: 834; `O=c1[nH]c(=O)n(C2CCCO2)cc1F` (stereo not drawn) [Tegafur]: 448; `CCCc1nc2c(C)cc(-c3nc4ccccc4n3C)cc2n1Cc1ccc(-c2ccccc2C(=O)O)cc1` [Telmisartan]: 454.
Take `CN1C(C(=O)Nc2ccccn2)=C(O)c2sccc2S1(=O)=O` [Tenoxicam]: the ThS net change came out at 416.
Same read-out and setting: next, `CN(C/C=C/C#CC(C)(C)C)Cc1cccc2ccccc12` [Terbinafine]: 506.

Values taken from PMC7539012, “Hyperphosphorylated tau aggregation and cytotoxicity modulators screen identified prescription drugs linked to Alzheimer's disease and cognitive functions” (Scientific Reports, 2020).
